Reference: the supplement of paper PMC10307832

Experiments:
Test in all cases: relative viability (nuclei count vs DMSO), 5 days (fraction); higher = more cells survive
UMC-11 = test system: UMC-11
Procedure, shortened: (§1)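 Dosing by pin tool came one day after lung cancer cell lines were seeded in 1536-well plates, using either one drug or a fixed anchor-drug dose plus five library-drug doses (not always all listed) in √10 steps. After 5 days, nuclei were counted on 4× images. Relative viability is treated-well nuclei count divided by vehicle-well nuclei count, and values are medians of duplicate plates.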

CAL-12T = test system: CAL-12T
Procedure, shortened: as §1

LC-2-ad = test system: LC-2-ad
Procedure, shortened: as §1

NCI-H2228 = test system: NCI-H2228
Procedure, shortened: as §1

RERF-LC-KJ = test system: RERF-LC-KJ
Procedure, shortened: as §1

NCI-H1755 = test system: NCI-H1755
Procedure, shortened: as §1

NCI-H2405 = test system: NCI-H2405
Procedure, shortened: as §1

NCI-H1944 = test system: NCI-H1944
Procedure, shortened: as §1

LU99A = test system: LU99A
Procedure, shortened: as §1

NCI-H2170 = test system: NCI-H2170
Procedure, shortened: as §1

NCI-H1395 = test system: NCI-H1395
Procedure, shortened: as §1

ChaGo-K-1 = test system: ChaGo-K-1
Procedure, shortened: as §1

NCI-H460 = test system: NCI-H460
Procedure, shortened: as §1

HCC-366 = test system: HCC-366
Procedure, shortened: as §1

LOU-NH91 = test system: LOU-NH91
Procedure, shortened: as §1

NCI-H3122 = test system: NCI-H3122
Procedure, shortened: as §1

NCI-H2087 = test system: NCI-H2087
Procedure, shortened: as §1

NCI-H1651 = test system: NCI-H1651
Procedure, shortened: as §1

ABC-1 = test system: ABC-1
Procedure, shortened: as §1

PC-3 [JPC-3] = test system: PC-3 [JPC-3]
Procedure, shortened: as §1

HCC-78 = test system: HCC-78
Procedure, shortened: as §1

NCI-H1793 = test system: NCI-H1793
Procedure, shortened: as §1

`Cc1sc2c(c1C)C(c1ccc(Cl)cc1)=N[C@@H](CC(=O)OC(C)(C)C)c1nnc(C)n1-2` [JQ1] + O=C(c1cc(Cc2n[nH]c(=O)c3ccccc23)ccc1F)N1CCN(C(=O)C2CC2)CC1 [Olaparib] (partner 8 µM) gave a relative viability (UMC-11; first compound 0.04 µM) of 0.359, a relative viability (UMC-11; first compound 0.1265 µM) of 0.282 and a relative viability (UMC-11; first compound 0.4 µM) of 0.268. It also gave a relative viability (UMC-11; first compound 1.265 µM) of 0.142, a relative viability (UMC-11; first compound 4 µM) of 0.0941 and a relative viability (CAL-12T; first compound 0.04 µM) of 0.715. The relative viability (CAL-12T; first compound 0.1265 µM) was 0.823, the relative viability (CAL-12T; first compound 0.4 µM) was 0.595 and the relative viability (CAL-12T; first compound 1.265 µM) was 0.34. The relative viability (CAL-12T; first compound 4 µM) was 0.272, the relative viability (LC-2-ad; first compound 0.04 µM) was 0.701 and the relative viability (LC-2-ad; first compound 0.1265 µM) was 0.599. It also gave a relative viability (LC-2-ad; first compound 0.4 µM) of 0.332, a relative viability (LC-2-ad; first compound 1.265 µM) of 0.256 and a relative viability (LC-2-ad; first compound 4 µM) of 0.256. The relative viability (NCI-H2228; first compound 0.04 µM) was 0.628, the relative viability (NCI-H2228; first compound 0.1265 µM) was 0.434 and the relative viability (NCI-H2228; first compound 0.4 µM) was 0.356. It also gave a relative viability (NCI-H2228; first compound 1.265 µM) of 0.123, a relative viability (NCI-H2228; first compound 4 µM) of 0.181 and a relative viability (RERF-LC-KJ; first compound 0.04 µM) of 0.904. For the same compound, the relative viability (RERF-LC-KJ; first compound 0.1265 µM) was 0.808, the relative viability (RERF-LC-KJ; first compound 0.4 µM) was 0.669 and the relative viability (RERF-LC-KJ; first compound 1.265 µM) was 0.42. For the same compound, the relative viability (RERF-LC-KJ; first compound 4 µM) was 0.338, the relative viability (NCI-H1755; first compound 0.04 µM) was 0.887 and the relative viability (NCI-H1755; first compound 0.1265 µM) was 0.824. The relative viability (NCI-H1755; first compound 0.4 µM) was 0.806, the relative viability (NCI-H1755; first compound 1.265 µM) was 0.644 and the relative viability (NCI-H1755; first compound 4 µM) was 0.611. It also gave a relative viability (NCI-H2405; first compound 0.04 µM) of 0.867, a relative viability (NCI-H2405; first compound 0.4 µM) of 0.851 and a relative viability (NCI-H2405; first compound 1.265 µM) of 0.693. It also gave a relative viability (NCI-H2405; first compound 4 µM) of 0.433, a relative viability (NCI-H1944; first compound 0.04 µM) of 0.405 and a relative viability (NCI-H1944; first compound 0.1265 µM) of 0.391. It also gave a relative viability (NCI-H1944; first compound 0.4 µM) of 0.314, a relative viability (NCI-H1944; first compound 1.265 µM) of 0.232 and a relative viability (NCI-H1944; first compound 4 µM) of 0.235. The relative viability (LU99A; first compound 0.04 µM) was 0.264, the relative viability (LU99A; first compound 0.4 µM) was 0.169 and the relative viability (LU99A; first compound 1.265 µM) was 0.114. The relative viability (LU99A; first compound 4 µM) was 0.111, the relative viability (NCI-H2170; first compound 0.04 µM) was 0.614 and the relative viability (NCI-H2170; first compound 0.1265 µM) was 0.532. It also gave a relative viability (NCI-H2170; first compound 0.4 µM) of 0.361, a relative viability (NCI-H2170; first compound 1.265 µM) of 0.226 and a relative viability (NCI-H2170; first compound 4 µM) of 0.213. For the same compound, the relative viability (NCI-H1395; first compound 0.04 µM) was 0.489, the relative viability (NCI-H1395; first compound 0.1265 µM) was 0.452 and the relative viability (NCI-H1395; first compound 0.4 µM) was 0.449. The relative viability (NCI-H1395; first compound 1.265 µM) was 0.378, the relative viability (NCI-H1395; first compound 4 µM) was 0.356 and the relative viability (ChaGo-K-1; first compound 0.04 µM) was 0.392. The relative viability (ChaGo-K-1; first compound 0.1265 µM) was 0.37, the relative viability (ChaGo-K-1; first compound 0.4 µM) was 0.29 and the relative viability (ChaGo-K-1; first compound 1.265 µM) was 0.239. The relative viability (ChaGo-K-1; first compound 4 µM) was 0.214, the relative viability (NCI-H460; first compound 0.04 µM) was 0.43 and the relative viability (NCI-H460; first compound 0.1265 µM) was 0.336. It also gave a relative viability (NCI-H460; first compound 0.4 µM) of 0.179, a relative viability (NCI-H460; first compound 1.265 µM) of 0.124 and a relative viability (NCI-H460; first compound 4 µM) of 0.0676. The relative viability (HCC-366; first compound 0.04 µM) was 0.349, the relative viability (HCC-366; first compound 0.4 µM) was 0.197 and the relative viability (HCC-366; first compound 1.265 µM) was 0.102. It also gave a relative viability (HCC-366; first compound 4 µM) of 0.0747, a relative viability (LOU-NH91; first compound 0.04 µM) of 0.911 and a relative viability (LOU-NH91; first compound 0.1265 µM) of 0.769. It also gave a relative viability (LOU-NH91; first compound 0.4 µM) of 0.647, a relative viability (LOU-NH91; first compound 1.265 µM) of 0.488 and a relative viability (LOU-NH91; first compound 4 µM) of 0.421. The relative viability (NCI-H3122; first compound 0.04 µM) was 0.558, the relative viability (NCI-H3122; first compound 0.1265 µM) was 0.586 and the relative viability (NCI-H3122; first compound 0.4 µM) was 0.494. For the same compound, the relative viability (NCI-H3122; first compound 1.265 µM) was 0.485, the relative viability (NCI-H3122; first compound 4 µM) was 0.276 and the relative viability (NCI-H2087; first compound 0.04 µM) was 0.503. It also gave a relative viability (NCI-H2087; first compound 0.1265 µM) of 0.509, a relative viability (NCI-H2087; first compound 0.4 µM) of 0.646 and a relative viability (NCI-H2087; first compound 1.265 µM) of 0.381. It also gave a relative viability (NCI-H2087; first compound 4 µM) of 0.297, a relative viability (NCI-H1651; first compound 0.04 µM) of 0.175 and a relative viability (NCI-H1651; first compound 0.1265 µM) of 0.173. The relative viability (NCI-H1651; first compound 0.4 µM) was 0.151, the relative viability (NCI-H1651; first compound 1.265 µM) was 0.132 and the relative viability (NCI-H1651; first compound 4 µM) was 0.136. For the same compound, the relative viability (ABC-1; first compound 0.04 µM) was 0.772, the relative viability (ABC-1; first compound 0.1265 µM) was 0.575 and the relative viability (ABC-1; first compound 0.4 µM) was 0.744. The relative viability (ABC-1; first compound 1.265 µM) was 0.748, the relative viability (ABC-1; first compound 4 µM) was 0.385 and the relative viability (PC-3 [JPC-3]; first compound 0.04 µM) was 1.1. The relative viability (PC-3 [JPC-3]; first compound 0.1265 µM) was 0.992, the relative viability (PC-3 [JPC-3]; first compound 0.4 µM) was 1.05 and the relative viability (PC-3 [JPC-3]; first compound 1.265 µM) was 0.66. The relative viability (PC-3 [JPC-3]; first compound 4 µM) was 0.385, the relative viability (HCC-78; first compound 0.04 µM) was 0.7 and the relative viability (HCC-78; first compound 0.1265 µM) was 0.693. It also gave a relative viability (HCC-78; first compound 0.4 µM) of 0.807, a relative viability (HCC-78; first compound 1.265 µM) of 0.581 and a relative viability (HCC-78; first compound 4 µM) of 0.494. The relative viability (NCI-H1793; first compound 0.04 µM) was 0.882, the relative viability (NCI-H1793; first compound 0.1265 µM) was 0.735 and the relative viability (NCI-H1793; first compound 0.4 µM) was 0.666. For the same compound, the relative viability (NCI-H1793; first compound 1.265 µM) was 0.526 and the relative viability (NCI-H1793; first compound 4 µM) was 0.52.
